Molecules are shown by their SMILES.

The target of this assay is T1, human VR1 receptors (Homo sapiens, UniProt Q8NER1).
T1 construct: host or cells: cells that express human VR1 receptors (cell type not specified)
T1 sequence (Q8NER1 whole entry): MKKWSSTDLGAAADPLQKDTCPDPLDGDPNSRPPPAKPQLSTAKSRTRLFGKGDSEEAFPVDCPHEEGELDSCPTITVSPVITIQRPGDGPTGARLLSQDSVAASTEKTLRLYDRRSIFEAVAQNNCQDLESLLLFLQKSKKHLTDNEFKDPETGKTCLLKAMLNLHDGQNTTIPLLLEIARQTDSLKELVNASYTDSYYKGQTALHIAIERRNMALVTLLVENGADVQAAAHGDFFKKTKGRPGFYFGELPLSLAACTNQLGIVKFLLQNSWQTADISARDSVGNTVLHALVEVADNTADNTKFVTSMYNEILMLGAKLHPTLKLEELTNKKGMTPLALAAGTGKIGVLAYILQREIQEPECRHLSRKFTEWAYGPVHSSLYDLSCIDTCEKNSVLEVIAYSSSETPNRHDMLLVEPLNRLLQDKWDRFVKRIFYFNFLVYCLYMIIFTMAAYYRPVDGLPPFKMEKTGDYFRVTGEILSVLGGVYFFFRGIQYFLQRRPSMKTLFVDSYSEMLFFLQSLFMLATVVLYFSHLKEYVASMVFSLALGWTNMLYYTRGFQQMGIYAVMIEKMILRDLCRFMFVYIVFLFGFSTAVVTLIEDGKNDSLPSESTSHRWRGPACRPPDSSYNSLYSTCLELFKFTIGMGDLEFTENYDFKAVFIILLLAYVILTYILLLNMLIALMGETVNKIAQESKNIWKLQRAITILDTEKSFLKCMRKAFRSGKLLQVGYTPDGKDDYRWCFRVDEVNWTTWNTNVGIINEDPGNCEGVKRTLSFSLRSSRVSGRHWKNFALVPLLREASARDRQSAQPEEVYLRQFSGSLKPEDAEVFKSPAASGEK
Nature of the assay: Human VR1 antagonist assay (Ca2+ imaging). Format: cell-based. As to conditions: Ca2+ imaging (fura-2/AM) in cells highly expressing human VR1; agonist stimulation. From the text: Human VR1 Antagonist Assay
VR1 antagonistic activity can be determined by the Ca^2+ imaging assay using human VR1 highly expressing cells. The cells that highly express human VR1 receptors are obtainable from several different conventional methods. The one standard method is cloning from human Dorsal Root Ganglion (DRG) or kidney according to the methods such as described in the journal article; Nature, 389, pp 816-824, 1997. Alternatively VR1 receptors highly expressing human keratinocytes are also known and published in the journal article (Biochemical and Biophysical Research Communications, 291, pp 124-129, 2002). […] Furthermore, the method to up regulate human VR1 gene, which is usually a silent gene or don't produce detectable level of VR1 receptors, is also available to obtain propriety cells. Such genetic modification method was described in detail; Nat. Biotechnol., 19, pp 440-445, 2001.
The cells that express human VR1 receptors were maintained in culture flask at 37° C. in an environment containing 5% CO2 until use in the assay. The intracellular Ca^2+ imaging assay to determine VR1 antagonistic activities were done by following procedures.
The culture medium was removed from the flask and fura-2/AM fluorescent calcium indicator was added to the flask at a concentration of 5 μM in the medium. The flask was placed in CO2 incubator and incubated for 1 hour. Then the cells expressing the human VR1 receptors were detached from the flask follow by washing with phosphate buffer saline, PBS(−) and re-suspended in assay buffer. The 80 μl of aliquot of cell suspension (3.75×10^5 cells/ml) was added to the assay plate and the cells were spun down by centrifuge (950 rpm, 20° C., 3 minutes).
The compounds of the examples were tested in the Human VR1 antagonist assay described above.
Capsaicin Stimulation Assay
The capsaicin-induced changes in the intracellular calcium concentration were monitored using FDSS 6000 (Hamamatsu Photonics, Japan), a fluorometric imaging system. The cell suspension in Krebs-Ringer HEPES (KRH) buffer (115 mM NaCl, 5.4 mM KCl, 1 mM MgSO4, 1.8 mM CaCl2, 11 mM D-Glucose, 25 mM HEPES, 0.96 mM Na2HPO4, pH 7.3) were pre-incubated with varying concentrations of the test compounds or KRH buffer (buffer control) for 15 minutes at room temperature under the dark condition. Then capsaicin solution, which gives 300 nM in assay mixture, was automatically added to the assay plate by the FDSS 6000.
The Acid-induced changes in the intracellular calcium concentration were monitored using FDSS 6000 (Hamamatsu Photonics, Japan), a fluorometric imaging system. The cell suspension in resting buffer (HBSS supplemented with 10 mM HEPES, pH 7.4) were pre-incubated with varying concentrations of the test compounds or resting buffer (buffer control) for 15 minutes at room temperature under the dark condition. The cells were automatically added the stimulating solution (HBSS supplemented with MES, final assay buffer pH5.8) by the FDSS 6000.
Determination of Antagonist Activity
The monitoring of the changes in the fluorescence signals (λex=340 nm/380 nm, λem=510-520 nm) was initiated at 1 minute prior to the addition of capsaicin solution or acidic buffer and continued for 5 minute.
For orientation: IC50 means the concentration at which inhibition is half-maximal. For the compound `CC[C@@H](NC(=O)c1ccc2cc(C(C)(C)C)ccc2c1)c1ccc(C)nc1` [Example A6, (R)-6-tert-butyl-N-(1-(6-methylpyridin-3-yl)propyl)-2-naphthamide], the half-maximal inhibitory concentration (IC50) was 261 nM. The compound `Cc1ccc(C(C)NC(=O)c2ccc3cc(C(C)(C)C)ccc3c2)cn1` (centres unmarked) [Example A2, 6-tert-butyl-N-[1-(6-methylpyridin-3-yl)ethyl]-2-naphthamide] came in with an IC50 of 67.8 nM. `Cc1ccc([C@@H](C)NC(=O)c2ccc3cc(C(C)(C)C)ccc3n2)cn1` [Example B1, 6-tert-butyl-N-[(1R)-1-(6-methylpyridin-3-yl)ethyl]quinoline-2-carboxamide] registered an IC50 of 426 nM. Take `Oc1cc2c(cc1O)CN(C(=S)NCCc1ccc(Cl)cc1)CCC2` [Capsazepine, reference compound]: the IC50 lay within 237 to 455 nM. With `Cc1cc([C@@H](C)NC(=O)c2ccc3cc(C(C)(C)C)ccc3c2)ccn1` [Example C3, 6-tert-butyl-N-[(1R)-1-(2-methylpyridin-4-yl)ethyl]-2-naphthamide], the IC50 came to 77.5 nM. With `Cc1cc(CNC(=O)c2ccc3cc(C(C)(C)C)ccc3n2)c(C)cn1` [Example D2], the IC50 turned out to be 85.1 nM. Take `COc1cc(CNC(=O)c2ccc3cc(C(C)(C)C)ccc3c2)ccn1` [Example C2, 6-tert-butyl-N-[(2-methoxypyridin-4-yl)methyl]-2-naphthamide]: the IC50 was 203 nM.

As to `Cc1ncc([C@@H](C)NC(=O)c2ccc3cc(C(C)(C)C)ccc3c2)cc1Cl` [Example A4, 6-tert-butyl-N-[(1R)-1-(5-chloro-6-methylpyridin-3-yl)ethyl]-2-naphthamide], the IC50 came to 271 nM. In the case of `Cc1cc(CNC(=O)c2ccc3cc(C(C)(C)C)ccc3c2)c(C)cn1` [Example C4, 6-tert-butyl-N-[(2,5-dimethylpyridin-4-yl)methyl]-2-naphthamide], the IC50 is 32.5 nM.

Compound `Cc1ccc([C@@H](C)NC(=O)c2ccc3cc(C(C)(C)C)ccc3c2)cn1` [Example A3, 6-tert-butyl-N-[(1R)-1-(6-methylpyridin-3-yl)ethyl]-2-naphthamide] came in with an IC50 of 96 nM. Compound `C[C@@H](NC(=O)c1ccc2cc(C(C)(C)C)ccc2c1)c1ccc(CO)nc1` [Example A5, 6-tert-butyl-N-{(1R)-1-[6-(hydroxymethyl)pyridin-3-yl]ethyl}-2-naphthamide] yielded an IC50 of 127 nM. The compound `C[C@@H](NC(=O)c1ccc2cc(C(C)(C)C)ccc2c1)c1ccncc1` [Example C1, 6-tert-butyl-N-[(1R)-1-pyridin-4-ylethyl]-2-naphthamide] returned an IC50 of 451 nM. As for `Cc1ccc(CNC(=O)c2ccc3cc(C(C)(C)C)ccc3c2)cn1` [Example A1, 6-tert-butyl-N-[(6-methylpyridin-3-yl)methyl]-2-naphthamide], the IC50 worked out at 250 nM. For `Cc1cc(CNC(=O)c2ccc3cc(C(C)(C)C)ccc3n2)ccn1` [Example D1] the value was 231 nM.
